ChEMBL document CHEMBL1141668, “Synthesis and biological activity of imidazopyridine anticoccidial agents: Part II” (Eur J Med Chem, 2008)

Tests used:
Eimeria maxima [1] = assay: Anticoccidial activity against Eimeria maxima in chickens assessed as reduction of oocysts at 12 ppm measured after 8 days by ExMAC assay relative to untreated control; assay type: functional; parameters: scale not given: the % may be the effect or the level left
Eimeria maxima [2] = assay: Anticoccidial activity against Eimeria maxima in chickens assessed as reduction of oocysts at 6 ppm measured after 8 days by ExMAC assay relative to untreated control; assay type: functional; parameters: scale not given: the % may be the effect or the level left
Eimeria maxima [3] = assay: Anticoccidial activity against Eimeria maxima in chickens assessed as reduction of oocysts at 3 ppm measured after 8 days by ExMAC assay relative to untreated control; assay type: functional; parameters: scale not given: the % may be the effect or the level left
[4] = target: cGMP-dependent protein kinase (Eimeria tenella, UniProt Q8MMZ8); assay: Inhibition of Eimeria tenella cGMP-dependent protein kinase
Eimeria tenella [5] = assay: Anticoccidial activity against Eimeria tenella in chickens assessed as reduction of oocysts at 12 ppm measured after 8 days by ExMAC assay relative to untreated control; assay type: functional; parameters: scale not given: the % may be the effect or the level left
Eimeria tenella [6] = assay: Anticoccidial activity against Eimeria tenella in chickens assessed as reduction of oocysts at 6 ppm measured after 8 days by ExMAC assay relative to untreated control; assay type: functional; parameters: scale not given: the % may be the effect or the level left
Eimeria tenella [7] = assay: Anticoccidial activity against Eimeria tenella in chickens assessed as reduction of oocysts at 3 ppm measured after 8 days by ExMAC assay relative to untreated control; assay type: functional; parameters: scale not given: the % may be the effect or the level left
Eimeria acervulina [8] = assay: Anticoccidial activity against Eimeria acervulina in chickens assessed as reduction of oocysts at 12 ppm measured after 8 days by ExMAC assay relative to untreated control; assay type: functional; parameters: scale not given: the % may be the effect or the level left
Eimeria acervulina [9] = assay: Anticoccidial activity against Eimeria acervulina in chickens assessed as reduction of oocysts at 6 ppm measured after 8 days by ExMAC assay relative to untreated control; assay type: functional; parameters: scale not given: the % may be the effect or the level left
Eimeria acervulina [10] = assay: Anticoccidial activity against Eimeria acervulina in chickens assessed as reduction of oocysts at 3 ppm measured after 8 days by ExMAC assay relative to untreated control; assay type: functional; parameters: scale not given: the % may be the effect or the level left
Eimeria mitis [11] = assay: Anticoccidial activity against Eimeria mitis in chickens assessed as reduction of oocysts at 12 ppm measured after 8 days by ExMAC assay relative to untreated control; assay type: functional; parameters: scale not given: the % may be the effect or the level left
Eimeria mitis [12] = assay: Anticoccidial activity against Eimeria mitis in chickens assessed as reduction of oocysts at 6 ppm measured after 8 days by ExMAC assay relative to untreated control; assay type: functional; parameters: scale not given: the % may be the effect or the level left
Eimeria mitis [13] = assay: Anticoccidial activity against Eimeria mitis in chickens assessed as reduction of oocysts at 3 ppm measured after 8 days by ExMAC assay relative to untreated control; assay type: functional; parameters: scale not given: the % may be the effect or the level left
Eimeria tenella [14] = assay: Anticoccidial activity against Eimeria tenella in chickens assessed as reduction of oocysts at 50 ppm measured after 8 days by ExMAC assay relative to untreated control; assay type: functional; parameters: scale not given: the % may be the effect or the level left
Eimeria acervulina [15] = assay: Anticoccidial activity against Eimeria acervulina in chickens assessed as reduction of oocysts at 50 ppm measured after 8 days by ExMAC assay relative to untreated control; assay type: functional; parameters: scale not given: the % may be the effect or the level left
Eimeria mitis [16] = assay: Anticoccidial activity against Eimeria mitis in chickens assessed as reduction of oocysts at 50 ppm measured after 8 days by ExMAC assay relative to untreated control; assay type: functional; parameters: scale not given: the % may be the effect or the level left
Eimeria maxima [17] = assay: Anticoccidial activity against Eimeria maxima in chickens assessed as reduction of oocysts at 50 ppm measured after 8 days by ExMAC assay relative to untreated control; assay type: functional; parameters: scale not given: the % may be the effect or the level left
Eimeria maxima [18] = assay: Anticoccidial activity against Eimeria maxima in chickens assessed as reduction of oocysts at 1 ppm measured after 8 days by ExMAC assay relative to untreated control; assay type: functional; parameters: scale not given: the % may be the effect or the level left
Eimeria tenella [19] = assay: Anticoccidial activity against Eimeria tenella in chickens assessed as reduction of oocysts at 4 ppm measured after 8 days by ExMAC assay relative to untreated control; assay type: functional; parameters: scale not given: the % may be the effect or the level left
Eimeria tenella [20] = assay: Anticoccidial activity against Eimeria tenella in chickens assessed as reduction of oocysts at 2 ppm measured after 8 days by ExMAC assay relative to untreated control; assay type: functional; parameters: scale not given: the % may be the effect or the level left
Eimeria tenella [21] = assay: Anticoccidial activity against Eimeria tenella in chickens assessed as reduction of oocysts at 1 ppm measured after 8 days by ExMAC assay relative to untreated control; assay type: functional; parameters: scale not given: the % may be the effect or the level left
Eimeria acervulina [22] = assay: Anticoccidial activity against Eimeria acervulina in chickens assessed as reduction of oocysts at 4 ppm measured after 8 days by ExMAC assay relative to untreated control; assay type: functional; parameters: scale not given: the % may be the effect or the level left
Eimeria acervulina [23] = assay: Anticoccidial activity against Eimeria acervulina in chickens assessed as reduction of oocysts at 2 ppm measured after 8 days by ExMAC assay relative to untreated control; assay type: functional; parameters: scale not given: the % may be the effect or the level left
Eimeria acervulina [24] = assay: Anticoccidial activity against Eimeria acervulina in chickens assessed as reduction of oocysts at 1 ppm measured after 8 days by ExMAC assay relative to untreated control; assay type: functional; parameters: scale not given: the % may be the effect or the level left
Eimeria mitis [25] = assay: Anticoccidial activity against Eimeria mitis in chickens assessed as reduction of oocysts at 4 ppm measured after 8 days by ExMAC assay relative to untreated control; assay type: functional; parameters: scale not given: the % may be the effect or the level left
Eimeria mitis [26] = assay: Anticoccidial activity against Eimeria mitis in chickens assessed as reduction of oocysts at 2 ppm measured after 8 days by ExMAC assay relative to untreated control; assay type: functional; parameters: scale not given: the % may be the effect or the level left
Eimeria mitis [27] = assay: Anticoccidial activity against Eimeria mitis in chickens assessed as reduction of oocysts at 1 ppm measured after 8 days by ExMAC assay relative to untreated control; assay type: functional; parameters: scale not given: the % may be the effect or the level left
Eimeria maxima [28] = assay: Anticoccidial activity against Eimeria maxima in chickens assessed as reduction of oocysts at 4 ppm measured after 8 days by ExMAC assay relative to untreated control; assay type: functional; parameters: scale not given: the % may be the effect or the level left
Eimeria maxima [29] = assay: Anticoccidial activity against Eimeria maxima in chickens assessed as reduction of oocysts at 2 ppm measured after 8 days by ExMAC assay relative to untreated control; assay type: functional; parameters: scale not given: the % may be the effect or the level left

Sequence of cGMP-dependent protein kinase (Q8MMZ8 whole entry): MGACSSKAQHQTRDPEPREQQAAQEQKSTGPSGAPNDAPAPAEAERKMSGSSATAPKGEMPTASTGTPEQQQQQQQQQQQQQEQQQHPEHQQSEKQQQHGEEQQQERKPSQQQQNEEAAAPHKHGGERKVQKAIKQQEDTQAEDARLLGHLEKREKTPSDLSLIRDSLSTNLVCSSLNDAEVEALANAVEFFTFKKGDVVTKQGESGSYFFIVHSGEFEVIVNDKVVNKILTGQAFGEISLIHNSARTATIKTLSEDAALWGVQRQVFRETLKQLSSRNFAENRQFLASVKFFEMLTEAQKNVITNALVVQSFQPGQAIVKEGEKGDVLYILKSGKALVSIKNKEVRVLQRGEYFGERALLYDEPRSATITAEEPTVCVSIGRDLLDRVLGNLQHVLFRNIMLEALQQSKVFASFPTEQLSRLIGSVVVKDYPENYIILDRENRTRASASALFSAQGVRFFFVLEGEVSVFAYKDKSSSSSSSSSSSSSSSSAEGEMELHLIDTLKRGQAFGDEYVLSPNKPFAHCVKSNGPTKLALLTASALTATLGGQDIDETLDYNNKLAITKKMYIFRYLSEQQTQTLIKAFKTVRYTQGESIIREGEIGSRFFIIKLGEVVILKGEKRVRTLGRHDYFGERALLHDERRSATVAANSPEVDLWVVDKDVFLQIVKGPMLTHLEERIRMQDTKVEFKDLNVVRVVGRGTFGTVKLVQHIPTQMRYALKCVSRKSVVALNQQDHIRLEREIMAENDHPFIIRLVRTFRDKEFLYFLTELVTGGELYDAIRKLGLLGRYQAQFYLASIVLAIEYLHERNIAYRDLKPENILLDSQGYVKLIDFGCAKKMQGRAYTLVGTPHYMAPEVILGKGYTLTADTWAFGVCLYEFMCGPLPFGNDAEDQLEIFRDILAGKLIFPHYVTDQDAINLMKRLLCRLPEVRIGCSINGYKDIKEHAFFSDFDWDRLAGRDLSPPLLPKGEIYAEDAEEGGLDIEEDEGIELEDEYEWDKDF

Work on `CC(C)(N)c1ccn2c(-c3ccnc(N)n3)c(-c3ccc(F)cc3)nc2c1` yielded an Activity (Eimeria maxima [1]) of 100%, an Activity (Eimeria maxima [2]) of 80% and an Activity (Eimeria maxima [3]) of 80%. It also gave an IC50 [4] of 0.145 nM, an Activity (Eimeria tenella [5]) of 100% and an Activity (Eimeria tenella [6]) of 80%. The Activity (Eimeria tenella [7]) was under 50%, the Activity (Eimeria acervulina [8]) was 80% and the Activity (Eimeria acervulina [9]) was 80%. For the same compound, the Activity (Eimeria acervulina [10]) was 50%, the Activity (Eimeria mitis [11]) was under 50% and the Activity (Eimeria mitis [12]) was under 50%. It also gave an Activity (Eimeria mitis [13]) of under 50%.
With `NC(=O)c1ccn2c(-c3ccnc(N)n3)c(-c3ccc(F)cc3)nc2c1` the IC50 [4] was 1.8 nM, the Activity (Eimeria tenella [14]) was 80% and the Activity (Eimeria acervulina [15]) was under 50%. It also gave an Activity (Eimeria mitis [16]) of under 50% and an Activity (Eimeria maxima [17]) of 50%.
For `CC(c1ccn2c(-c3ccnc(N)n3)c(-c3ccc(F)cc3)nc2c1)N(C)C` (single isomer, unassigned; enantiomer B), the Activity (Eimeria maxima [18]) was 100%, the IC50 [4] was 0.067 nM and the Activity (Eimeria tenella [19]) was 80%. The Activity (Eimeria tenella [20]) was 80%, the Activity (Eimeria tenella [21]) was 50% and the Activity (Eimeria acervulina [22]) was 80%. For the same compound, the Activity (Eimeria acervulina [23]) was 100%, the Activity (Eimeria acervulina [24]) was 80% and the Activity (Eimeria mitis [25]) was 80%. The Activity (Eimeria mitis [26]) was 80%, the Activity (Eimeria mitis [27]) was under 50% and the Activity (Eimeria maxima [28]) was 100%. For the same compound, the Activity (Eimeria maxima [29]) was 80%.
